In ChEMBL document CHEMBL5625187, “A facile and selective derivatization approach on kynurenine-NH2 in daptomycin, leading to the discovery of hexakynomycin to combat multidrug-resistant Gram-positive pathogens especially daptomycin-resistant bacteria” (Eur J Med Chem, 2023):

How the values were obtained:
Assay type in all cases: functional
Staphylococcus aureus [1] = assay: Potency index, ratio of daptomycin MIC to test compound MIC for antibacterial activity against methicillin-susceptible Staphylococcus aureus Newman ATCC 25904
Staphylococcus aureus [2] = assay: Antibacterial activity against methicillin-susceptible Staphylococcus aureus Newman ATCC 25904 assessed as reduction in microbial growth incubated for 24 hrs by broth microdilution method
Staphylococcus aureus [3] = assay: Antibacterial activity against vancomycin-intermediate resistant Staphylococcus aureus Mu 50 assessed as reduction in microbial growth incubated for 24 hrs by broth microdilution method
Enterococcus faecium [4] = assay: Potency index, ratio of daptomycin MIC to test compound MIC for antibacterial activity against glycopeptide-resistant Enterococcus faecium Efm-HS-0649
Enterococcus faecium [5] = assay: Antibacterial activity against glycopeptide-resistant Enterococcus faecium Efm-HS-0649 assessed as reduction in microbial growth incubated for 24 hrs by broth microdilution method
Staphylococcus aureus [6] = assay: Antibacterial activity against methicillin-resistant Staphylococcus aureus USA300 assessed as reduction in microbial growth incubated for 24 hrs by broth microdilution method

SMILES | Ratio (Staphylococcus aureus [1]) | MIC (Staphylococcus aureus [2]) | MIC (Staphylococcus aureus [3]) | Ratio (Enterococcus faecium [4]) | MIC (Enterococcus faecium [5]) | MIC (Staphylococcus aureus [6])
CCCCCCCCCC(=O)N[C@@H](Cc1c[nH]c2ccccc12)C(=O)N[C@H](CC(N)=O)C(=O)N[C@@H](CC(=O)O)C(=O)N[C@@H]1C(=O)NCC(=O)N[C@@H](CCCN)C(=O)N[C@@H](CC(=O)O)C(=O)N[C@H](C)C(=O)N[C@@H](CC(=O)O)C(=O)NCC(=O)N[C@H](CO)C(=O)N[C@@H]([C@H](C)CC(=O)O)C(=O)N[C@@H](CC(=O)c2ccccc2NCCCC)C(=O)O[C@@H]1C (single isomer, unassigned) | 2 | 0.5 µg/mL | 4 µg/mL | 2 | 1 µg/mL | 0.5 µg/mL
CCCCCCCCCC(=O)N[C@@H](Cc1c[nH]c2ccccc12)C(=O)N[C@H](CC(N)=O)C(=O)N[C@@H](CC(=O)O)C(=O)N[C@@H]1C(=O)NCC(=O)N[C@@H](CCCN)C(=O)N[C@@H](CC(=O)O)C(=O)N[C@H](C)C(=O)N[C@@H](CC(=O)O)C(=O)NCC(=O)N[C@H](CO)C(=O)N[C@@H]([C@H](C)CC(=O)O)C(=O)N[C@@H](CC(=O)c2ccccc2NCC(=O)O)C(=O)O[C@@H]1C |  | 32 µg/mL | 128 µg/mL |  | 128 µg/mL | 32 µg/mL
CCCCCCCCCC(=O)N[C@@H](Cc1c[nH]c2ccccc12)C(=O)N[C@H](CC(N)=O)C(=O)N[C@@H](CC(=O)O)C(=O)N[C@@H]1C(=O)NCC(=O)N[C@@H](CCCN)C(=O)N[C@@H](CC(=O)O)C(=O)N[C@H](C)C(=O)N[C@@H](CC(=O)O)C(=O)NCC(=O)N[C@H](CO)C(=O)N[C@@H]([C@H](C)CC(=O)O)C(=O)N[C@@H](CC(=O)c2ccccc2NCC)C(=O)O[C@@H]1C (single isomer, unassigned) | 2 | 1 µg/mL | 4 µg/mL | 2 | 1 µg/mL | 1 µg/mL
CCCCCCCCCC(=O)N[C@@H](Cc1c[nH]c2ccccc12)C(=O)N[C@H](CC(N)=O)C(=O)N[C@@H](CC(=O)O)C(=O)N[C@@H]1C(=O)NCC(=O)N[C@@H](CCCN)C(=O)N[C@@H](CC(=O)O)C(=O)N[C@H](C)C(=O)N[C@@H](CC(=O)O)C(=O)NCC(=O)N[C@H](CO)C(=O)N[C@@H]([C@H](C)CC(=O)O)C(=O)N[C@@H](CC(=O)c2ccccc2NCc2ccccn2)C(=O)O[C@@H]1C | 8 | 8 µg/mL | 32 µg/mL | 8 | 8 µg/mL | 4 µg/mL
CCCCCCCCCC(=O)N[C@@H](Cc1c[nH]c2ccccc12)C(=O)N[C@H](CC(N)=O)C(=O)N[C@@H](CC(=O)O)C(=O)N[C@@H]1C(=O)NCC(=O)N[C@@H](CCCN)C(=O)N[C@@H](CC(=O)O)C(=O)N[C@H](C)C(=O)N[C@@H](CC(=O)O)C(=O)NCC(=O)N[C@H](CO)C(=O)N[C@@H]([C@H](C)CC(=O)O)C(=O)N[C@@H](CC(=O)c2ccccc2NCCCSC)C(=O)O[C@@H]1C (single isomer, unassigned) |  | 1 µg/mL | 4 µg/mL |  | 1 µg/mL | 0.5 µg/mL
CCCCCCCCCC(=O)N[C@@H](Cc1c[nH]c2ccccc12)C(=O)N[C@H](CC(N)=O)C(=O)N[C@@H](CC(=O)O)C(=O)N[C@@H]1C(=O)NCC(=O)N[C@@H](CCCN)C(=O)N[C@@H](CC(=O)O)C(=O)N[C@H](C)C(=O)N[C@@H](CC(=O)O)C(=O)NCC(=O)N[C@H](CO)C(=O)N[C@@H]([C@H](C)CC(=O)O)C(=O)N[C@@H](CC(=O)c2ccccc2NCCCCCCC)C(=O)O[C@@H]1C (single isomer, unassigned) | 2 | 0.5 µg/mL | 2 µg/mL | 2 | 0.25 µg/mL | 0.25 µg/mL
CCCCCCCCCCNc1ccccc1C(=O)C[C@@H]1NC(=O)[C@H]([C@H](C)CC(=O)O)NC(=O)[C@@H](CO)NC(=O)CNC(=O)[C@H](CC(=O)O)NC(=O)[C@@H](C)NC(=O)[C@H](CC(=O)O)NC(=O)[C@H](CCCN)NC(=O)CNC(=O)[C@@H](NC(=O)[C@H](CC(=O)O)NC(=O)[C@@H](CC(N)=O)NC(=O)[C@H](Cc2c[nH]c3ccccc23)NC(=O)CCCCCCCCC)[C@@H](C)OC1=O (single isomer, unassigned) | 2 | 2 µg/mL | 4 µg/mL | 2 | 2 µg/mL | 2 µg/mL
CCCCCCCCCC(=O)N[C@@H](Cc1c[nH]c2ccccc12)C(=O)N[C@H](CC(N)=O)C(=O)N[C@@H](CC(=O)O)C(=O)N[C@@H]1C(=O)NCC(=O)N[C@@H](CCCN)C(=O)N[C@@H](CC(=O)O)C(=O)N[C@H](C)C(=O)N[C@@H](CC(=O)O)C(=O)NCC(=O)N[C@H](CO)C(=O)N[C@@H]([C@H](C)CC(=O)O)C(=O)N[C@@H](CC(=O)c2ccccc2NCCC[S+](C)[O-])C(=O)O[C@@H]1C (stereo partly specified) |  | 128 µg/mL | > 128 µg/mL |  | 128 µg/mL | 128 µg/mL
C#CC[S+](C)CCCNc1ccccc1C(=O)C[C@@H]1NC(=O)[C@H]([C@H](C)CC(=O)O)NC(=O)[C@@H](CO)NC(=O)CNC(=O)[C@H](CC(=O)O)NC(=O)[C@@H](C)NC(=O)[C@H](CC(=O)O)NC(=O)[C@H](CCCN)NC(=O)CNC(=O)[C@@H](NC(=O)[C@H](CC(=O)O)NC(=O)[C@@H](CC(N)=O)NC(=O)[C@H](Cc2c[nH]c3ccccc23)NC(=O)CCCCCCCCC)[C@@H](C)OC1=O (stereo partly specified) |  | 128 µg/mL | > 128 µg/mL |  | 128 µg/mL | 128 µg/mL
CCCCCCCCCC(=O)N[C@@H](Cc1c[nH]c2ccccc12)C(=O)N[C@H](CC(N)=O)C(=O)N[C@@H](CC(=O)O)C(=O)N[C@@H]1C(=O)NCC(=O)N[C@@H](CCCN)C(=O)N[C@@H](CC(=O)O)C(=O)N[C@H](C)C(=O)N[C@@H](CC(=O)O)C(=O)NCC(=O)N[C@H](CO)C(=O)N[C@@H]([C@H](C)CC(=O)O)C(=O)N[C@@H](CC(=O)c2ccccc2NCCCCC)C(=O)O[C@@H]1C (single isomer, unassigned) | 2 | 0.5 µg/mL | 2 µg/mL | 2 | 0.5 µg/mL | 0.125 µg/mL
CCCCCCCCCC(=O)N[C@@H](Cc1c[nH]c2ccccc12)C(=O)N[C@H](CC(N)=O)C(=O)N[C@@H](CC(=O)O)C(=O)N[C@@H]1C(=O)NCC(=O)N[C@@H](CCCN)C(=O)N[C@@H](CC(=O)O)C(=O)N[C@H](C)C(=O)N[C@@H](CC(=O)O)C(=O)NCC(=O)N[C@H](CO)C(=O)N[C@@H]([C@H](C)CC(=O)O)C(=O)N[C@@H](CC(=O)c2ccccc2NCCC)C(=O)O[C@@H]1C | 2 | 1 µg/mL | 4 µg/mL | 2 | 1 µg/mL | 0.5 µg/mL
CCCCCCCCCC(=O)N[C@@H](Cc1c[nH]c2ccccc12)C(=O)N[C@H](CC(N)=O)C(=O)N[C@@H](CC(=O)O)C(=O)N[C@@H]1C(=O)NCC(=O)N[C@@H](CCCN)C(=O)N[C@@H](CC(=O)O)C(=O)N[C@H](C)C(=O)N[C@@H](CC(=O)O)C(=O)NCC(=O)N[C@H](CO)C(=O)N[C@@H]([C@H](C)CC(=O)O)C(=O)N[C@@H](CC(=O)c2ccccc2NC)C(=O)O[C@@H]1C | 2 | 1 µg/mL | 4 µg/mL | 2 | 4 µg/mL | 1 µg/mL
CCCCCCCCCC(=O)N[C@@H](Cc1c[nH]c2ccccc12)C(=O)N[C@H](CC(N)=O)C(=O)N[C@@H](CC(=O)O)C(=O)N[C@@H]1C(=O)NCC(=O)N[C@@H](CCCN)C(=O)N[C@@H](CC(=O)O)C(=O)N[C@H](C)C(=O)N[C@@H](CC(=O)O)C(=O)NCC(=O)N[C@H](CO)C(=O)N[C@@H]([C@H](C)CC(=O)O)C(=O)N[C@@H](CC(=O)c2ccccc2NCCCCCCCC)C(=O)O[C@@H]1C (single isomer, unassigned) | 2 | 1 µg/mL | 4 µg/mL | 2 | 0.5 µg/mL | 1 µg/mL
CCCCCCCCCC(=O)N[C@@H](Cc1c[nH]c2ccccc12)C(=O)N[C@H](CC(N)=O)C(=O)N[C@@H](CC(=O)O)C(=O)N[C@@H]1C(=O)NCC(=O)N[C@@H](CCCN)C(=O)N[C@@H](CC(=O)O)C(=O)N[C@H](C)C(=O)N[C@@H](CC(=O)O)C(=O)NCC(=O)N[C@H](CO)C(=O)N[C@@H]([C@H](C)CC(=O)O)C(=O)N[C@@H](CC(=O)c2ccccc2NCCC[S+](C)CC(O)CC)C(=O)O[C@@H]1C (single isomer, unassigned) |  | > 128 µg/mL | > 128 µg/mL |  | > 128 µg/mL | > 128 µg/mL
CCCCCCCCCC(=O)N[C@@H](Cc1c[nH]c2ccccc12)C(=O)N[C@H](CC(N)=O)C(=O)N[C@@H](CC(=O)O)C(=O)N[C@@H]1C(=O)NCC(=O)N[C@@H](CCCN)C(=O)N[C@@H](CC(=O)O)C(=O)N[C@H](C)C(=O)N[C@@H](CC(=O)O)C(=O)NCC(=O)N[C@H](CO)C(=O)N[C@@H]([C@H](C)CC(=O)O)C(=O)N[C@@H](CC(=O)c2ccccc2NCCC2C(=O)C=CC2=O)C(=O)O[C@@H]1C (single isomer, unassigned) |  | 128 µg/mL | > 128 µg/mL |  | 128 µg/mL | 128 µg/mL
CCCCCCCCCC(=O)N[C@@H](Cc1c[nH]c2ccccc12)C(=O)N[C@H](CC(N)=O)C(=O)N[C@@H](CC(=O)O)C(=O)N[C@@H]1C(=O)NCC(=O)N[C@@H](CCCN)C(=O)N[C@@H](CC(=O)O)C(=O)N[C@H](C)C(=O)N[C@@H](CC(=O)O)C(=O)NCC(=O)N[C@H](CO)C(=O)N[C@@H]([C@H](C)CC(=O)O)C(=O)N[C@@H](CC(=O)c2ccccc2NCc2ccc3c(c2)CCO3)C(=O)O[C@@H]1C |  | 1 µg/mL | 4 µg/mL |  | 2 µg/mL | 1 µg/mL
CCCCCCCCCC(=O)N[C@@H](Cc1c[nH]c2ccccc12)C(=O)N[C@H](CC(N)=O)C(=O)N[C@@H](CC(=O)O)C(=O)N[C@@H]1C(=O)NCC(=O)N[C@@H](CCCN)C(=O)N[C@@H](CC(=O)O)C(=O)N[C@H](C)C(=O)N[C@@H](CC(=O)O)C(=O)NCC(=O)N[C@H](CO)C(=O)N[C@@H]([C@H](C)CC(=O)O)C(=O)N[C@@H](CC(=O)c2ccccc2NCC2CCCCC2)C(=O)O[C@@H]1C (single isomer, unassigned) |  | 1 µg/mL | 4 µg/mL |  | 1 µg/mL | 0.5 µg/mL
